Like-named read-outs stand apart in the source and are kept apart here. Blank lines part the entries; values can stand above or below the molecule they belong to.
Assays:
[1] = Ex vivo metabolite studies (radio-HPLC of plasma and brain extracts); format: in vivo, CD1 mice; settings: mice
Experimental: (§1) [^18F]1 and [^18F]2 (100 to 150 MBq, 250 to 450 GBq/μmol in 150 μL NaCl 0.9%/10% EtOH) were injected via the tail vein in CD1 male mice (10 to 12 weeks old, 20 to 25 g). Blood and urine samples were obtained at 30 and 60 min p.i. (n = 3 per time point). Twofold extractions of plasma and brain samples (n = 3) were performed using ice-cold MeCN according to the standard protocol established in our group (see [47, 48]). Briefly, plasma samples were obtained by centrifugation of the blood at 4,000×g at 4°C for 10 min, and brain samples were homogenized in ice-cold 50 mM Tris–HCl (pH = 7.4). The samples were vortexed, incubated on ice, and centrifuged at 10,000×g for 3 min. Supernatants were collected, and the precipitates were re-dissolved in ice-cold MeCN for the second extraction. The supernatants from the two extractions were combined, concentrated under a gentle argon stream at 65°C, and analyzed by radio-TLC and gradient analytical HPLC (see ‘Radiochemistry’ section). Aliquots from each extraction supernatant and the precipitates were also taken and quantified by γ counting (Wallac Wizard 1470, Perkin Elmer Inc., Waltham, MA, USA) along with the respective aliquots of intact plasma samples and brain homogenates. A moderate recovery of radioactivity was obtained from plasma samples and brain homogenates (60% to 70%). Radiometabolites of [^18F]17 in the plasma, spleen, and brain were assessed at 30 and 60 min p.i.

[2] = In vivo metabolism of [18F]17 and uptake of [18F]10; parameters: species or system CD1 mice; settings: for tissue uptake at 0.5 h / tissue uptake at 1 h: mouse, iv, after i.v. 100 to 200 kBq [18F]17, female CD1 mice
Experimental: The total amount of activity measured in, e.g. the plasma at particular times p.i. also depends on the kinetics of the excretion of radiotracer/radiometabolites. For [^18F]2, this is more pronounced than for [^18F]1 with unmetabolized [^18F]2 accounting for only 2% of the total radioactivity in the plasma at 30 min p.i. At this time, more than 90% of the recovered activity in plasma samples for [^18F]2 consisted of the single radiometabolite M1b. As this value decreases only slightly up to 60 min p.i. (88%), M1b can be assumed as a rather metabolically stable compound. This radiometabolite of [^18F]2 probably corresponds to the N-aryl-oxadiazolyl-propanoic acid resulting from enzymatic hydrolysis of the amide bond of 2[40]. […] In order introduce ^18F into the molecule, the carbon acid moiety was protected as a methyl ester resulting in the labelled compound [^18F]17 (Scheme 5). It was expected that after injection of this compound in mice, the ester will be converted into the free acid [^18F]10. […] After intravenous injection of [^18F]17 in CD1 mice, samples of the plasma, brain, and spleen were analyzed at 30 and 60 min p.i. (Table 5).
as §1

Structure (SMILES): CCn1c2ccccc2c2cc(NC(=O)CCc3nc(-c4ccc([N+](C)(C)C)cc4Br)no3)ccc21.[I-] [Compound 13, 3-Bromo-4-(5-(3-((9-ethyl-9H-carbazol-3-yl)amino)-3-oxopropyl)-1,2,4-oxadiazol-3-yl)-N,N,N-trimethylbenzenaminium iodide]
melting point: 109 °C

Structure (SMILES): Cc1ccc(S(=O)(=O)OCCn2c3ccccc3c3cc(NC(=O)CCc4nc(-c5ccc(F)cc5Br)no4)ccc32)cc1 [Compound 15, [2-(3-{3-[3-(2-Bromo-4-fluorophenyl)-1,2,4-oxadiazol-5-yl]propanamido}-9H-carbazol-9-yl)ethyl] 4-methylbenzenesulfonate]
melting point: 136 °C

Structure (SMILES): COC(=O)CCc1nc(-c2ccc(F)cc2Br)no1 [Compound 17, Methyl-3-(3-(2-bromo-4-fluorophenyl)-1,2,4-oxadiazol-5-yl)propanoate]
melting point: 39 °C

The next lines start with the values.

melting point: 119 °C
Structure (SMILES): COC(=O)CCc1nc(-c2ccc([N+](C)(C)C)cc2Br)no1.[I-] [Compound 18, 3-Bromo-4-(5-(3-methoxy-3-oxopropyl)-1,2,4-oxadiazol-3-yl)-N,N,N-trimethylbenzenaminium iodide]

Percentage of total activity in brain samples, 30 min p.i. ([1]; brain homogenate extract, 30 min p.i. of [18F]1 or [18F]2, radio-HPLC): 8%
Percentage of total activity in brain samples, 60 min p.i. ([1]; brain homogenate extract, 60 min p.i. of [18F]1 or [18F]2, radio-HPLC): 51%
Relative percentage of intact tracer and radiometabolites, Plasma 60 min p.i. ([1]; plasma, 60 min p.i. of [18F]1 or [18F]2, radio-HPLC): 88%
tissue uptake at 0.5 h ([2]; brain, read-out: uptake, Brain, 30 min p.i.): 0.28 %ID/g
tissue uptake at 1 h ([2]; brain, read-out: uptake, Brain, 60 min p.i.): 0.29 %ID/g
tissue uptake at 0.5 h ([2]; plasma, read-out: uptake, Plasma, 30 min p.i.): 18.2 %ID/g
tissue uptake at 1 h ([2]; plasma, read-out: uptake, Plasma, 60 min p.i.): 15.4 %ID/g
tissue uptake at 0.5 h ([2]; spleen, read-out: uptake, Spleen, 30 min p.i.): 1.35 %ID/g
tissue uptake at 1 h ([2]; spleen, read-out: uptake, Spleen, 60 min p.i.): 1.31 %ID/g
Further metabolic transformation in brain and spleen samples ([2]; up to 60 min p.i. of [18F]17, CD1 mice): no further metabolic transformation
Structure (SMILES): O=C(O)CCc1nc(-c2ccc([18F])cc2Br)no1 [[^18F]10]

Conversion to free acid [18F]10 in plasma samples ([2]; plasma, 30 min p.i., i.v., CD1 mice): completely converted
Structure (SMILES): COC(=O)CCc1nc(-c2ccc([18F])cc2Br)no1 [[^18F]17]

Source: PMC3856494, “Radiofluorination and biological evaluation of N-aryl-oxadiazolyl-propionamides as potential radioligands for PET imaging of cannabinoid CB2 receptors” (Organic and Medicinal Chemistry Letters, 2013)
